Results on 19 compounds are retold here after patent US8846951B2 (AbbVie Inc., priority 2009, dated 2014).

In assay [1] the target is T1, 5HT2B receptors (Homo sapiens, UniProt P41595).
T1 construct: expressed in transfected cells; host or cells: CHO-K1 cells
The assay is described as follows: Human 5-HT2B functional high throughput screening assay in CHO-K1 cells (calcium flux). It counts as cell-based. The following applies: for EC50: CHO-K1 cells, calcium flux. The essentials:
(§1)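 Calcium flux in CHO-K1 cells overexpressing each receptor, using Ca4 dye with probenecid and FLIPR detection. Top concentration was 10 μM, diluted 1:10 across 6 points, and efficacy was scaled to serotonin.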

Assay [2] concerns the target T2, 5HT2C receptors (Homo sapiens, UniProt P28335).
T2 sequence (P28335 33-458): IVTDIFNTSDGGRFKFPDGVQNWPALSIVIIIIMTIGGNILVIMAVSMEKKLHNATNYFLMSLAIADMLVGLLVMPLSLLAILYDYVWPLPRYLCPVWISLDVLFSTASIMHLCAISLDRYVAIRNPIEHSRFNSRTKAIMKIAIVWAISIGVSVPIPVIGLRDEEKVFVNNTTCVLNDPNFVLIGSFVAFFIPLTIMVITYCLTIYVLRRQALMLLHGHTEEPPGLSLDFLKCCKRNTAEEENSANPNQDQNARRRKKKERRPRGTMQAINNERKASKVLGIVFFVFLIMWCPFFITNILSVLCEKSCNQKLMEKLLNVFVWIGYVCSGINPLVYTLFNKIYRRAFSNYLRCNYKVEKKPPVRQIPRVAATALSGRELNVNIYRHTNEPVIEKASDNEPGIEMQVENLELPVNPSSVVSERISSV
The assay can be described thus: Human 5-HT2C functional high throughput screening assay in CHO-K1 cells (calcium flux). Set-up: expressed in transfected cells; host or cells: CHO-K1 cells. It counts as cell-based. The following applies: for EC50: CHO-K1 cells, calcium flux; for Emax: 5-HT2C, maximum functional response as percentage relative to the effect of serotonin. The essentials:
as §1
For orientation: A change in cytosolic calcium serves as a functional read-out for many receptors and channels.

Where [3] appears, read: 5-HT2B agonist activity, read-out: EC50.
Setting [4] is: 5-HT2B, maximum functional response as percentage relative to the effect of serotonin.
Where [5] appears, read: 5-HT2C agonist activity, read-out: EC50.

Structures are written as SMILES. Where two headings read alike, the source gives them in different places.

T1 sequence (P41595 whole entry): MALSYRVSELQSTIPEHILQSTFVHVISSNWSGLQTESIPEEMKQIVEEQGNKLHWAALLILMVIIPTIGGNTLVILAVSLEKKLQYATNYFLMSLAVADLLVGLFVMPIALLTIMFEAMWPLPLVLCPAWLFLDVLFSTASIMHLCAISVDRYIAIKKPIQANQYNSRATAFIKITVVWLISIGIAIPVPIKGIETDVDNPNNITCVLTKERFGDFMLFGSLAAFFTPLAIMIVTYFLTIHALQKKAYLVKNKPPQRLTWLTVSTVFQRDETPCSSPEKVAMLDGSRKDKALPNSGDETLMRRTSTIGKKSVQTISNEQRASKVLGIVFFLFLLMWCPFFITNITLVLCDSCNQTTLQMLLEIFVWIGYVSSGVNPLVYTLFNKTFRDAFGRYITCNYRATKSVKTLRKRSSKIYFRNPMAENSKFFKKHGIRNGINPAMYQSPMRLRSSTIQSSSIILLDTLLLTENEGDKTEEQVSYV

In the case of `COc1cc(C)ccc1-c1ccc2c(c1)C(=O)NC[C@@H]1CN(C)C[C@@H]21` (relative stereo) [Example 302, Trans-8-(2-methoxy-4-methylphenyl)-2-methyl-2,3,3a,4,5,10b-hexahydropyrrolo[3,4-d][2]benzazepin-6(1H)-one], the values for the EC50 in assay [1] (setting [3]) and in assay [2] (setting [5]) were > 10000 nM and 70 nM, respectively. Also, the maximum response (Emax) (commonly the maximal effect, on the per cent scale that the assay sets) was “inactive” in assay [1] (setting [4]) and 95% in assay [2] (CHO-K1, read-out: Emax).

In the case of `CN1C[C@H]2CNC(=O)c3cc(-c4cccc(OC(F)(F)F)c4)ccc3[C@@H]2C1` (relative stereo) [Example 132, Trans-2-methyl-8-(3-(trifluoromethoxy)phenyl)-1,2,3,3a,4,5-hexahydrobenzo[e]pyrrolo[3,4-c]azepin-6(10bH)-one], the EC50 (commonly the midpoint of the concentration-response curve) in assay [1] (setting [3]) is > 10000 nM; in assay [2] (setting [5]), 20 nM. For the same compound, the Emax result was “inactive” in assay [1] (setting [4]) and > 120% in assay [2] (CHO-K1, read-out: Emax).

Take `CC(=O)N1CC[C@@H]2CNC[C@H]2c2ccccc21` (relative stereo) [Example 328, 1-[Trans-2,3,3a,4,5,10b-hexahydropyrrolo[3,4-d][1]benzazepin-6(1H)-yl]ethanone]: the EC50 was 4000 nM in assay [1] (setting [3]) and 900 nM in assay [2] (setting [5]). Also, the results for the Emax in assay [1] (CHO-K1) and in assay [2] (CHO-K1) were 60% and 90%, respectively.

`c1cnc2c(c1)C1CNCC1CCO2` (mixture of isomers) [Example 260, 2,3,3a,4,5,10b-Hexahydro-1H-pyrrolo[3′,4′:4,5]oxepino[2,3-b]pyridine]: the EC50 in assay [1] (setting [3]) is 3000 nM; in assay [2] (setting [5]), 1000 nM. The Emax in assay [1] (CHO-K1) is 45%; in assay [2] (CHO-K1), > 120%.

`O=S(=O)(c1cccc(C(F)(F)F)c1)N1Cc2cccnc2[C@@H]2CNC[C@H]2C1` (relative stereo) [Example 345, Trans-6-{[3-(trifluoromethyl)phenyl]sulfonyl}-5,6,7,7a,8,9,10,10a-octahydropyrido[3,2-c]pyrrolo[3,4-e]azepine]: the EC50 in assay [1] (setting [3]) is 200 nM; in assay [2] (setting [5]), 400 nM. Also, the Emax is 90% in assay [1] (CHO-K1, 5-HT2B, maximum functional response as percentage relative to the effect of serotonin, read-out: Emax) and 80% in assay [2] (CHO-K1, read-out: Emax).

`O=C1NC[C@@H]2CN(Cc3ccccc3)C[C@H]2c2cccc(OC(F)(F)F)c21` (relative stereo) [Example 102, Trans-2-benzyl-7-(trifluoromethoxy)-1,2,3,3a,4,5-hexahydrobenzo[c]pyrrolo[3,4-e]azepin-6(10bH)-one]: the values for the EC50 in assay [1] (setting [3]) and in assay [2] (setting [5]) were > 10000 nM and 100 nM, respectively. For the same compound, the Emax entry in assay [1] (setting [4]) is “inactive”; in assay [2] (CHO-K1, read-out: Emax) it was > 120%.

In the case of `CN1C[C@H]2CNC(=O)c3cc(-c4ccsc4Cl)ccc3[C@@H]2C1` (relative stereo) [Example 387, Trans-8-(2-chloro-3-thienyl)-2-methyl-2,3,3a,4,5,10b-hexahydropyrrolo[3,4-d][2]benzazepin-6(1H)-one], the results for the EC50 in assay [1] (setting [3]) and in assay [2] (setting [5]) were > 10000 nM and 6 nM, respectively. Moreover, the Emax entry in assay [1] (setting [4]) is “inactive”; in assay [2] (CHO-K1, read-out: Emax), 95%.

Regarding `CN1C[C@H]2CNC(=O)c3cc(-c4cccc(C#N)c4)ccc3[C@@H]2C1` (relative stereo) [Example 240, 3-(Trans-2-methyl-6-oxo-1,2,3,3a,4,5,6,10b-octahydrobenzo[c]pyrrolo[3,4-e]azepin-8-yl)benzonitrile], the EC50 in assay [1] (setting [3]) is > 10000 nM; in assay [2] (setting [5]), 10 nM. In addition, the Emax result in assay [1] (setting [4]) was “inactive”; in assay [2] (CHO-K1, read-out: Emax), > 120%.

Regarding `CN1C[C@H]2CNC(=O)c3cc(-c4ccc5c(c4)CCO5)ccc3[C@@H]2C1` (relative stereo) [Example 321, Trans-8-(2,3-dihydro-1-benzofuran-5-yl)-2-methyl-2,3,3a,4,5,10b-hexahydropyrrolo[3,4-d][2]benzazepin-6(1H)-one], the EC50 is > 10000 nM in assay [1] (setting [3]) and 3 nM in assay [2] (setting [5]). Also, the Emax result in assay [1] (setting [4]) was “inactive”; in assay [2] (CHO-K1, read-out: Emax), 90%.

As for `O=S(=O)(c1ccc(Cl)s1)N1Cc2cccnc2[C@@H]2CNC[C@H]2C1` (relative stereo) [Example 339, Trans-6-[(5-chloro-2-thienyl)sulfonyl]-5,6,7,7a,8,9,10,10a-octahydropyrido[3,2-c]pyrrolo[3,4-e]azepine], the Emax entry was “inactive” in assay [1] (setting [4]) and 110% in assay [2] (CHO-K1). Besides, the EC50 was > 10000 nM in assay [1] (EC50, 5-HT2B agonist activity) and 30 nM in assay [2] (EC50, 5-HT2C agonist activity).

Consider `Cc1ccc(-c2ccc3c(c2)C(=O)NC[C@@H]2CN(C)C[C@@H]32)o1` (relative stereo) [Example 203, Trans-2-methyl-8-(5-methylfuran-2-yl)-1,2,3,3a,4,5-hexahydrobenzo[e]pyrrolo[3,4-c]azepin-6(10bH)-one], for which the results for the EC50 in assay [1] (setting [3]) and in assay [2] (setting [5]) were > 10000 nM and 6 nM, respectively. For the same compound, the Emax result is “inactive” in assay [1] (setting [4]) and > 120% in assay [2] (CHO-K1, read-out: Emax).

`O=S(=O)(c1cccc(F)c1)N1Cc2cccnc2[C@@H]2CNC[C@H]2C1` (relative stereo) [Example 337, Trans-6-[(3-fluorophenyl)sulfonyl]-5,6,7,7a,8,9,10,10a-octahydropyrido[3,2-c]pyrrolo[3,4-e]azepine]: the values for the Emax in assay [1] (CHO-K1) and in assay [2] (CHO-K1) were 30% and 90%, respectively. The EC50 in assay [1] (EC50, 5-HT2B agonist activity) came to 1000 nM; in assay [2] (EC50, 5-HT2C agonist activity) it was 90 nM.

`c1ccc(CN2CC[C@@H]3CNC[C@H]3c3ccccc32)cc1` (relative stereo) [Example 329, Trans-6-benzyl-1,2,3,3a,4,5,6,10b-octahydropyrrolo[3,4-d][1]benzazepine]: the EC50 worked out at 2000 nM in assay [1] (setting [3]) and 1000 nM in assay [2] (setting [5]). The maximal response (Emax) was found to be 15% in assay [1] (CHO-K1) and 70% in assay [2] (CHO-K1).

As to `CN1C[C@H]2CNC(=O)c3cc(C(=O)NCCc4cccc(C(F)(F)F)c4)ccc3[C@@H]2C1` (relative stereo) [Example 127, Trans-2-methyl-6-oxo-N-(3-(trifluoromethyl)phenethyl)-1,2,3,3a,4,5,6,10b-octahydrobenzo[e]pyrrolo[3,4-c]azepine-8-carboxamide], the EC50 is > 10000 nM in assay [1] (setting [3]) and 1000 nM in assay [2] (setting [5]). The Emax entry is “inactive” in assay [1] (setting [4]) and 80% in assay [2] (CHO-K1, read-out: Emax).

For `Nc1ccc2c(c1)C(=O)NC[C@@H]1CN(Cc3ccccc3)C[C@@H]21` (relative stereo) [Example 141, Trans-8-amino-2-benzyl-1,2,3,3a,4,5-hexahydrobenzo[e]pyrrolo[3,4-c]azepin-6(10bH)-one], the values for the half-maximal effective concentration (EC50) in assay [1] (setting [3]) and in assay [2] (setting [5]) were > 10000 nM and 600 nM, respectively. Moreover, the Emax entry in assay [1] (setting [4]) was “inactive”; in assay [2] (CHO-K1, read-out: Emax), > 120%.

Take `CN1C[C@H]2CNC(=O)c3cc(-c4ccc(OC(F)(F)F)cc4)ccc3[C@@H]2C1` (relative stereo) [Example 140, Trans-2-methyl-8-(4-(trifluoromethoxy)phenyl)-1,2,3,3a,4,5-hexahydrobenzo[e]pyrrolo[3,4-c]azepin-6(10bH)-one]: the EC50 in assay [1] (setting [3]) is > 10000 nM; in assay [2] (setting [5]), 60 nM. For the same compound, the Emax entry in assay [1] (setting [4]) was “inactive”; in assay [2] (CHO-K1, read-out: Emax) it was > 120%.

For the compound `COc1cc(F)ccc1-c1ccc2c(c1)C(=O)NC[C@@H]1CN(C)C[C@@H]21` (relative stereo) [Example 299, Trans-8-(4-fluoro-2-methoxyphenyl)-2-methyl-2,3,3a,4,5,10b-hexahydropyrrolo[3,4-d][2]benzazepin-6(1H)-one], the EC50 was > 10000 nM in assay [1] (setting [3]) and 10 nM in assay [2] (setting [5]). Moreover, the Emax result is “inactive” in assay [1] (setting [4]) and 100% in assay [2] (CHO-K1, read-out: Emax).

For the compound `CN1C[C@@H]2CNC(=O)c3cc(-c4ccc5c(c4)C(O)CC5)ccc3[C@H]2C1` (stereo partly drawn) [Example 310, (3aS,10bS)-8-(3-Hydroxy-2,3-dihydro-1H-inden-5-yl)-2-methyl-2,3,3a,4,5,10b-hexahydropyrrolo[3,4-d][2]benzazepin-6(1H)-one], the EC50 in assay [1] (setting [3]) is > 10000 nM; in assay [2] (setting [5]), 0.7 nM. Further, the Emax result in assay [1] (setting [4]) was “inactive”; in assay [2] (CHO-K1, read-out: Emax), 100%.

Consider `Cc1noc(C)c1-c1ccc2c(c1)C(=O)NC[C@@H]1CNC[C@@H]21` (single isomer, unassigned) [Example 292, Trans-8-(3,5-dimethyl-1,2-oxazol-4-yl)-2,3,3a,4,5,10b-hexahydropyrrolo[3,4-d][2]benzazepin-6(1H)-one], for which the figures for the EC50 in assay [1] (5-HT2B agonist activity) and in assay [2] (5-HT2C agonist activity) were 2000 nM and 50 nM, respectively. In addition, the Emax in assay [1] (setting [4]) amounted to 15%; in assay [2], 100%.
